Test results taken from patent US20240197828A1, “Chimeric molecule to treat sepsis and other inflammatory conditions” (THE FEINSTEIN INSTITUTES FOR MEDICAL RESEARCH, priority 2022, published 2024).
Residues, ends and D or L forms follow the SMILES beside them.

Key:
WT mice [1] = assay: CLP-induced polymicrobial sepsis, 20 hours; type: in vivo, mouse; settings: vs vehicle
Experimental: FIG. 6A-6M: MOP3 ameliorates inflammation, lung injury, and improves survival in sepsis. WT mice subjected to CLP-induced sepsis with MOP3 treatment (10 μg/kg) or vehicle (volume-equivalent). After 20 hours, blood and lung tissue collected for respective analyses. (A-C) Serum was analyzed for systemic eCIRP, IL-6, and TNFα levels by ELISA. (D-F) Serum was analyzed for ALT, AST, and LDH by calorimetric assays. (G-I) Lung tissue was frozen and mRNA expression of IL-6, TNFα, and IL-1β was measured by PCR and MPO by calorimetric assay. (J) Lung tissue was frozen and analyzed for MPO levels by calorimetric assay. (K) Lungs were sectioned, imaged for histologic injury by H&E staining, and performed lung injury scoring. (L) Sectioned lungs were stained for TUNEL positive cells and cell counts were quantified. All experiments were performed 3 times, and all data were used for analysis (N=6-18). Data are expressed as mean±SEM and compared by one-way ANOVA and SNK test. *p<0.05 vs. sham, #p<0.05 vs. CLP vehicle. (M) WT mice subjected to CLP-induced sepsis with MOP3 treatment (10 μg/kg) or vehicle (volume equivalent) and monitored for 10 days for humane endpoints, and differences in survival were determined (N=17 per group). *p<0.05 vs. CLP vehicle.
Adult (8-12 weeks) male, C57BL/6 wild-type (WT) mice (20-30 g) were purchased from Charles River Laboratories. MFG-E8 knockout mice (MFG-E8^−/−) were originally obtained from Dr. Shigekazu Nagata, Osaka University of Japan, and bred following our Institutional Animal Care and Use Committee (IACUC) policies. Age-matched, healthy mice were used in all experiments. Animals were randomly assigned to sham, vehicle, or treatment groups. Concerted effort was made to ensure that a limited number of animals were used in each experiment. All experiments were previously approved by IACUC of the Feinstein Institutes for Medical Research (Manhasset, NY) and were performed in accordance with the guidance for the use of experimental animals by the National Institutes of Health (Bethesda, MD). For the design of in vivo models, sample size calculation was driven by variability, effect size, significance level and power as determined through performance of early feasibility and optimization pilot studies.
Sepsis was induced in mice by cecal ligation and puncture (CLP) as previously described (4). Briefly, mice were anesthetized with inhaled isoflurane to achieve adequate anesthesia. After placement in the supine position, the abdomen was shaved and disinfected. A 2-cm midline laparotomy was created. The cecum was located and eviscerated from the abdomen and then ligated with a 4-0 silk suture approximately 1 cm proximal from the terminal cecal extremity. For short-term experiments using this polymicrobial sepsis model, the cecum was punctured twice (through and through) with a 22G needle. Careful extraction of a consistent, small amount of cecal content was extruded, and the cecum along with cecal content was returned to the peritoneal cavity. […] All comparative surgeries were performed on the same day to reduce severity-variability. All short-term experiments were repeated at least three-times to ensure reproducibility of relative markers of inflammation and injury.
For respective experiments, either WT or MFG-E8 knockout mice were subjected to CLP. For treatment experiments, mice were randomly assigned to either vehicle or treatment groups. MOP3 ([…]) was given via retroorbital (r.o.) injection at time of surgery, immediately following abdominal closure. Vehicle groups received an equivalent volume of normal saline via r.o. injection. For resuscitation, mice additionally received subcutaneous injection of 500 μL of normal saline immediately after abdominal closure.
The mouse macrophage cell culture supernatants were analyzed for cytokine levels using ELISA kits (BD Biosciences, CA). […]

WT mice [2] = assay: Sterile eCIRP-induced inflammation by rmCIRP injection in mice; type: in vivo, mouse; settings: rmCIRP 5 mg/kg co-incubated 30 min with test substance, r.o. injection, 4 hours, vs eCIRP alone
Experimental: FIG. 5A-5B. eCIRP-induced inflammation is attenuated by MOP3. WT mice were treated according to respective groups: PBS (volume equivalent), rmCIRP (5 mg/kg), or MOP3 (10 μg/kg) co-incubated with rmCIRP (5 mg/kg) for 30 mins prior to r.o. injection. After 4 hours, serum was measured for IL-6 (A) and TNFα (B) levels by ELISA. All experiments were performed 3 times, and all data were used for analysis (N=7-10). Data are expressed as mean±SEM and compared by one-way ANOVA and SNK test. *p<0.05 vs. PBS, #p<0.05 vs. eCIRP.
Adult (8-12 weeks) male, C57BL/6 wild-type (WT) mice (20-30 g) were purchased from Charles River Laboratories. […] For the design of in vivo models, sample size calculation was driven by variability, effect size, significance level and power as determined through performance of early feasibility and optimization pilot studies. […]
The mouse macrophage cell culture supernatants were analyzed for cytokine levels using ELISA kits (BD Biosciences, CA). […] TNF-α and IL-6 levels were measured in cell supernatants by ELISA in accordance with respective manufacturers' instructions (BD Biosciences, CA). Blood was collected, centrifuged at 4,000 RPM for 10 minutes, and sera was separated and analyzed for cytokine levels using ELISA kits (BD Biosciences, CA). TNF-α and IL-6 levels in the serum were measured by ELISA in accordance with respective manufacturers' instructions. […]

Question: `CC(C)C[C@H](NC(=O)[C@H](CC(N)=O)NC(=O)[C@H](Cc1c[nH]c2ccccc12)NC(=O)[C@@H](NC(=O)[C@H](CCCCN)NC(=O)[C@H](Cc1ccc(O)cc1)NC(=O)[C@H](CO)NC(=O)[C@H](CO)NC(=O)[C@H](CO)NC(=O)[C@H](CC(=O)O)NC(=O)CNC(=O)[C@@H](N)CCCNC(=N)N)[C@@H](C)O)C(=O)N[C@@H](CCCNC(=N)N)C(=O)N[C@@H](C)C(=O)N[C@@H](Cc1ccccc1)C(=O)NCC(=O)N[C@@H](Cc1c[nH]c2ccccc12)C(=O)N[C@@H](Cc1ccc(O)cc1)C(=O)O` [MOP3, RGDSSSYKTWNLRAFGWY] (H-RGDSSSYKTWNLRAFGWY-OH; N-terminus and C-terminus assumed) was tested. Which “lung tissue mRNA levels of IL-1β” value (WT mice [1]; PCR) did it give?
Answer: reduced

Question: What about the “lung tissue mRNA levels of IL-6” value (WT mice [1]; PCR) of the same molecule?
Answer: reduced

Question: What about the “lung tissue mRNA levels of TNFα” value (WT mice [1]; PCR) of the same molecule?
Answer: reduced

Question: And the “serum levels of eCIRP” value (WT mice [1]; one-time intravenous MOP3 at surgical closure)?
Answer: significantly reduced

Question: What about the “systemic IL-6” value (WT mice [1]; serum) of the same molecule?
Answer: attenuated systemic inflammation

Question: What about the “systemic TNFα” value (WT mice [1]; serum) of the same molecule?
Answer: attenuated systemic inflammation

Question: What about the “apoptotic cells in lungs (TUNEL)” value (WT mice [1]) of the same molecule?
Answer: significantly less apoptotic cells

Question: And the “lung MPO levels” value (WT mice [1])?
Answer: decreased

Question: What about the “lung histologic architecture (H&E, lung injury)” value (WT mice [1]) of the same molecule?
Answer: significantly preserved histologic architecture

Question: What about the “serum ALT levels” value (WT mice [1]) of the same molecule?
Answer: reduced

Question: And the “serum AST levels” value (WT mice [1])?
Answer: reduced

Question: What about the “serum LDH levels” value (WT mice [1]) of the same molecule?
Answer: reduced

Question: What about the “serum IL-6 levels” value (WT mice [2]) of the same molecule?
Answer: reduced systemic levels

Question: What about the “serum TNFα levels” value (WT mice [2]) of the same molecule?
Answer: reduced systemic levels
